Laboratory results reported in ChEMBL document CHEMBL1130634, “Quinazolines: combined type 3 and 4 phosphodiesterase inhibitors” (Bioorg Med Chem Lett, 1998).

What was measured:
[1] = target: 3',5'-cyclic-AMP phosphodiesterase 4D (Homo sapiens, UniProt Q08499); assay: Evaluated for its ability to inhibit PDE4D.
Phosphodiesterase 3 = Phosphodiesterase 3 (Homo sapiens, UniProt Q14432+Q13370); assay: Evaluated for its ability to inhibit PDE3.; format: protein assay
Phosphodiesterase 4 [2] = target: T1, Phosphodiesterase 4 (Rattus norvegicus, UniProt P14270+P14646+P14644+P54748); assay: Evaluated for the inhibition of [3H]rolipram binding to membrane-bound PDE4.
[3] = target: T2, 3',5'-cyclic-AMP phosphodiesterase 4A (Homo sapiens, UniProt P27815); assay: Evaluated for its ability to inhibit PDE4A.
T2 sequence (P27815 whole entry): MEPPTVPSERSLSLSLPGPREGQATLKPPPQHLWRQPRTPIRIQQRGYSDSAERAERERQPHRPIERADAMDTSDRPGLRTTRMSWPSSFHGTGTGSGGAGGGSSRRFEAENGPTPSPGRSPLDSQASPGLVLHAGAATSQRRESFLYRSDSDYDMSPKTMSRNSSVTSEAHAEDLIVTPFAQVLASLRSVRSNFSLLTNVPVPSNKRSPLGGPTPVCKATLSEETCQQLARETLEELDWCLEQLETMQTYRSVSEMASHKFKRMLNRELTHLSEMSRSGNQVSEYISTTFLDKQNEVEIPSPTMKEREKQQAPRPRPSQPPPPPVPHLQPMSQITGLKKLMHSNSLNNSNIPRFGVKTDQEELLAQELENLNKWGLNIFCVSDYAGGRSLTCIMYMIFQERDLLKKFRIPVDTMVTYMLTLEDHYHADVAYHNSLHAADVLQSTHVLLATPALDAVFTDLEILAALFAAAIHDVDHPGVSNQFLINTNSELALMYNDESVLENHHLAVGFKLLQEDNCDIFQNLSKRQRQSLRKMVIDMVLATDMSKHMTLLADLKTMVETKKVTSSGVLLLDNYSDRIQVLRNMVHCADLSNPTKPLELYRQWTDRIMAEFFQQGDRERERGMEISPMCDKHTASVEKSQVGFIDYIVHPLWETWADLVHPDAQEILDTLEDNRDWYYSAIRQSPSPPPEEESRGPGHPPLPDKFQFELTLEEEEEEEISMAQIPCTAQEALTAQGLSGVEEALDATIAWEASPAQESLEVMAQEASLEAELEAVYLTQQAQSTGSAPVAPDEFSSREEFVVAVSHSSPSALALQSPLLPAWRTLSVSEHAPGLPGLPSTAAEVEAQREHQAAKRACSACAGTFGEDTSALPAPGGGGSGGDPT

[4] = target: T3, 3',5'-cyclic-AMP phosphodiesterase 4B (Rattus norvegicus, UniProt P14646); assay: Evaluated for its ability to inhibit PDE4B.
T3 sequence (P14646 whole entry): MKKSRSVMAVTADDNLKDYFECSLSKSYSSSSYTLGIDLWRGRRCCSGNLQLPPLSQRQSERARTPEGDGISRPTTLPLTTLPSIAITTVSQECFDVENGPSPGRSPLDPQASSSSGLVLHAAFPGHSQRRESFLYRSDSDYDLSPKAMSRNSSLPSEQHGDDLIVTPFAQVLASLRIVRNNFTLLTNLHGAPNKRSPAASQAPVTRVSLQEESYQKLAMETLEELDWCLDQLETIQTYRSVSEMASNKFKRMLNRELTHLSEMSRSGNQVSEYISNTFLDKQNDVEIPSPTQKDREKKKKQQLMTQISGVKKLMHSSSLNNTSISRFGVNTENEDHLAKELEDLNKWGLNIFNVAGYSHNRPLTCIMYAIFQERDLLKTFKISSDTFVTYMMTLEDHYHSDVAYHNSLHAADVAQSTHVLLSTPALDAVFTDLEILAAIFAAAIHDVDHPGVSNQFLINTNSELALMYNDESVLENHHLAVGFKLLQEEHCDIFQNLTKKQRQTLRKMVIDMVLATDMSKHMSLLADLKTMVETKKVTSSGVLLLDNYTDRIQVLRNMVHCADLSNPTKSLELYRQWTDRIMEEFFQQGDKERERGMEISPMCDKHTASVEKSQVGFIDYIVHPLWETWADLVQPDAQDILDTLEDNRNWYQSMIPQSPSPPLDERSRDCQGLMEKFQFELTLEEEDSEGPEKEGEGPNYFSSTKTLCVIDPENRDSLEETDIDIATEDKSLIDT

[5] = target: T2, 3',5'-cyclic-AMP phosphodiesterase 4A; assay: Inhibition of PDE4A
Phosphodiesterase 4 [6] = target: T1, Phosphodiesterase 4; assay: Inhibition of [3H]-rolipram binding to membrane-bound PDE4

Sequence of 3',5'-cyclic-AMP phosphodiesterase 4D (Q08499 whole entry): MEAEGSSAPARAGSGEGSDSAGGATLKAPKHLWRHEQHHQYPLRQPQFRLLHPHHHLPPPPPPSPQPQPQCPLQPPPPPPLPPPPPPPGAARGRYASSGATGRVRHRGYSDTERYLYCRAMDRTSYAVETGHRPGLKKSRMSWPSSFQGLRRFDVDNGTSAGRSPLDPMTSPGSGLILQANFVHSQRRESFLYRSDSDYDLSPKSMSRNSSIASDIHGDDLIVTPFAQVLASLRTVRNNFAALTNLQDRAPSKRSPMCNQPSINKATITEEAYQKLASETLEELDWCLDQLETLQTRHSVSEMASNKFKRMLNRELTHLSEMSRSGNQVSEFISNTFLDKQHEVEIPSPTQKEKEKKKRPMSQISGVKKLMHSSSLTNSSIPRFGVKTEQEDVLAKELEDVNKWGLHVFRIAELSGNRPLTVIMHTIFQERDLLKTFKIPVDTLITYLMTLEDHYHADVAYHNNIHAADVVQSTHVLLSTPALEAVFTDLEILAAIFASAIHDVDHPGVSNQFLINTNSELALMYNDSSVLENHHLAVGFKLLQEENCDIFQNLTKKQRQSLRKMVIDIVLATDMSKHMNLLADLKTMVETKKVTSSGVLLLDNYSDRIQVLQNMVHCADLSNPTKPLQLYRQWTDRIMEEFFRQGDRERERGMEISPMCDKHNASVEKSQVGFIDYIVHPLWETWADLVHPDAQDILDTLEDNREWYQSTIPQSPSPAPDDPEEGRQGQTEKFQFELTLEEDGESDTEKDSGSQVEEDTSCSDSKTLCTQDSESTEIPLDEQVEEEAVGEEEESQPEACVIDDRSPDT

Compound | IC50 [1] | IC50 (Phosphodiesterase 3) | IC50 (Phosphodiesterase 4 [2]) | IC50 [3] | IC50 [4] | IC50 [5] | IC50 (Phosphodiesterase 4 [6])
COc1cc2c(-c3cc(OCC4CC4)cc(OCC4CC4)c3)nc(OCCCO)nc2cc1OCCO | 130 nM | 310 nM | 145 nM | 250 nM | 200 nM |  | 
COc1cc2nc(C)nc(-c3cc(OC(C)C)cc(OC(C)C)c3)c2cc1OC | 1200 nM |  |  | 2300 nM | 1300 nM |  | 
COc1cc2nc(C)nc(-c3cc(O)cc(O)c3)c2cc1OC | 2000 nM |  |  |  | 14000 nM | 23500 nM | 
CCSc1nc(-c2cc(OCC3CC3)cc(OCC3CC3)c2)c2cc(OC)c(OCCO)cc2n1 | 700 nM |  |  | 540 nM | 440 nM |  | 
CCCCc1nc(-c2cc(OCC3CC3)cc(OCC3CC3)c2)c2cc(OC)c(OCCO)cc2n1 | 300 nM | 720 nM |  | 1300 nM | 300 nM |  | 50 nM
COc1nc(-c2cc(OCC3CC3)cc(OCC3CC3)c2)c2cc(OC)c(OCCO)cc2n1 | 140 nM | 390 nM | 210 nM | 130 nM | 110 nM |  | 
CCc1nc(-c2cc(OCC3CC3)cc(OCC3CC3)c2)c2cc(OC)c(OCc3ccccc3)cc2n1 | > 100000 nM |  |  | > 100000 nM | > 100000 nM |  | 
CCc1nc(-c2cc(OCC3CC3)cc(OCC3CC3)c2)c2cc(OCCO)c(OCCO)cc2n1 | > 100000 nM |  |  | > 100000 nM | > 100000 nM |  | 
CCc1nc(-c2cc(OCC3CC3)cc(OCC3CC3)c2)c2cc(OC)c(OCCO)cc2n1 | 22 nM | 16 nM | 15 nM | 30 nM | 25 nM |  | 
CCc1nc(-c2cc(OCC3CC3)cc(OCC3CC3)c2)c2ccc(OCCO)cc2n1 | 850 nM |  |  | 630 nM | 660 nM |  | 
CCOc1nc(-c2cc(OCC3CC3)cc(OCC3CC3)c2)c2cc(OC)c(OCCO)cc2n1 | 60 nM | 340 nM | 43 nM | 85 nM | 70 nM |  | 
CCc1nc(-c2cc(OCC3CC3)cc(OCC3CC3)c2)c2cc(OC)c(O)cc2n1 | 650 nM |  |  | 3300 nM | 2400 nM |  | 
COc1cc2c(-c3cc(OCC4CC4)cc(OCC4CC4)c3)nc(NCCCO)nc2cc1OCCO | 230 nM | 430 nM | 200 nM | 500 nM | 340 nM |  | 
COc1cc2c(-c3cc(OCC4CC4)cc(OCC4CC4)c3)nc(OCCO)nc2cc1OCCO | 90 nM | 430 nM |  | 70 nM | 80 nM |  | 
COc1cc2nc(C)nc(-c3cc(OCC4CC4)cc(OCC4CC4)c3)c2cc1OC | 800 nM |  |  | 900 nM | 650 nM |  | 
CCc1nc(-c2cc(OCC3CC3)cc(OCC3CC3)c2)c2cc(OC)c(OCC3CC3)cc2n1 | 540 nM |  |  | 2900 nM | 600 nM |  | 
COc1cc2c(-c3cc(OCC4CC4)cc(OCC4CC4)c3)nc(-c3cccs3)nc2cc1OCCO | 3000 nM |  |  | 5400 nM | 1300 nM |  | 
COc1cc2c(-c3cc(OCC4CC4)cc(OCC4CC4)c3)nc(N3CCOCC3)nc2cc1OCCO | 1200 nM |  |  | 3300 nM | 2500 nM |  | 
CCOC(=O)COc1cc2nc(C)nc(-c3cc(OCC4CC4)cc(OCC4CC4)c3)c2cc1OC | > 100000 nM | 700 nM |  | > 10000 nM | 61000 nM |  | 
COc1cc2c(-c3cc(OCC4CC4)cc(OCC4CC4)c3)nc(-c3cc(OCC4CC4)cc(OCC4CC4)c3)nc2cc1OCCO | 8500 nM | 7800 nM |  | 14000 nM | 22000 nM |  | 
